{"source": "patent US9901637B2", "about": "“Vitamin D3 and analogs thereof for treating alopecia” (priority 2009, dated 2018)", "key": {"[1]": {"test_system": "Primary human epidermal keratinocytes (HEKa)", "assay": "Real-time PCR array, Heat Shock Protein Array, calcitriol-treated HEKa", "assay_type": "cell-based", "conditions": "HEKa cells, 0.1 μg/mL calcitriol", "procedure": "(§1) Changes in mRNA levels were evaluated using real-time PCR quantification to assess mRNA levels in preselected subsets containing 80 pathway specific targets (see Appendix). The PCR array analysis utilized two groups of genes—those related to Heat Shock Proteins (SABiosciences), and those related to Neuroscience Ion Channels and Transporters (SABioscience). Primary human epidermal keratinocytes (HEKa) were maintained in Epilife Medium (Cascade Biologics, Inc., Portland Oreg.) along with Human Keratinocyte Growth Supplement (Cascade Biologics, Inc., Portland Oreg.). […] Vehicle control group of cells were treated with 5 mL media containing 1 μL of ethanol. Cells were harvested 3, 6, 16, 24, 48, or 72 hours after the start of the treatment. Cells were lysed for RNA isolation at different treatment times using the RNeasy Mini kit (Qiagen, Inc., Valencia Calif.) following the manufacturer's instructions. RNA was quantified by measuring optical density at 260 nm. First Strand Synthesis: […] Products from the first strand synthesis were diluted with water, mixed with the SYBR green master mix (SABiosciences, Frederick Md.) and loaded onto PCR arrays. Real time PCR was run on the PCR Arrays (Heat Shock Protein Arrays, and Neuroscience and Ion Channel Arrays) (SABiosciences, Frederick Md.) on a Biorad CFX96. Data analyses were performed using the PCR array data analysis software available on the SABiosciences website."}, "[2]": {"test_system": "Primary human epidermal keratinocytes (HEKa)", "assay": "Real-time PCR array, Neuroscience and Ion Channels Array, calcitriol-treated HEKa", "assay_type": "cell-based", "conditions": "HEKa cells, 0.1 μg/mL calcitriol, three independent experiments", "procedure": "as §1"}, "HEKa cells [3]": {"test_system": "HEKa cells", "assay": "Antibody microarray (Panorama XP725) of calcitriol-treated HEKa", "assay_type": "cell-based, human", "conditions": "calcitriol-treated (24 hour), 3-hour sample as baseline", "procedure": "Briefly, the treated HEKa cells were first harvested and then extracted to obtain a soluble protein supernatant. […] The excess dye was removed from the protein sample, and the resulting labeled protein samples were used for microarray incubation. To determine the expression level of a particular target protein at a later time point (e.g., at hour 6 or 24) relative to that at an earlier time point (e.g., at hour 3), the samples were labeled by different labels (e.g., 3-hour extract labeled with Cy3,6-hour or 24-hour extract labeled with Cy5). […] After incubation with the microarray chip (according to manufactures recommended protocols), the chips were washed and dried. The microarrays were then scanned with a fluorescent laser scanner to measure the relative fluorescence intensity of the Cy3 and Cy5 dyes. If the amount of a particular type of target protein increased (or decreased) over time, more (or less) of the dye associated with the later time point (e.g., Cy5) will be retained by the microarray. For example, in this experiment, the earliest time point (e.g., 3-hour) was used as a baseline to determine the relative protein expression level at two later time points (e.g., 6-hour vs. 24-hour). If more Cy5 is retained by the array between 6-24 hours, the expression level of the target protein increased over the time period. […]"}, "HEKa cells [4]": {"test_system": "HEKa cells", "assay": "Proteomic analysis (2-D gel electrophoresis) of calcitriol-treated HEKa", "assay_type": "cell-based, human", "conditions": "0.1 μg/mL calcitriol", "procedure": "The cell pellets were then analyzed using proteomic methods, such as 2-D gel and Western blot analysis. […] In all, analysis of about 458 protein spots in the comparative study was performed, comparing the control sample against the 3-, 6-, and 24-hour treatment samples. Six spots showing statistically significant differential changes were identified. These spots were excised, and their protein contents subjected to sequence identification by trypsin digestion and mass spectrometry characterization."}, "SKMEL-28 (melanoma)": {"test_system": "SKMEL-28 (melanoma)", "assay": "Cell growth/viability assay, calcitriol with or without chemotherapy drug", "assay_type": "cell-based"}, "HepG2 (liver cancer)": {"test_system": "HepG2 (liver cancer)", "assay": "Cell growth/viability assay, calcitriol with or without chemotherapy drug", "assay_type": "cell-based"}, "PC-3": {"test_system": "PC-3", "assay": "Cell viability assay after calcitriol exposure for two passages", "assay_type": "cell-based", "conditions": "PC-3, 0.1 μg/mL calcitriol for two passages", "procedure": "Then these pretreated cells were utilized to set up the cell-based assay. […] Three commonly used chemotherapy drugs (doxorubicin, cisplatin and erlotinib) were selected to evaluate calcitriol treated cells. […] In these experiments, the commercial drugs were serially diluted, starting at a concentration 4-times higher than the final desired concentration for cell incubation."}, "[5]": {"test_system": "chemotherapy-induced alopecia (CIA)", "conditions": "for protection from etoposide-induced alopecia: etoposide 1.5 mg/kg daily for 3 days", "procedure": "Specifically, Long Evans and Sprague Dawley rats with pups were purchased from Harlan Laboratories, Inc. They were housed and fed according to applicable animal handling rules and regulations. Pups were allowed to acclimate for 48 hours prior to the start of experiments. […] Rats were isolated from their littermates and mother for 6-hour periods of time. Subsequently, the treated area was cleaned with soap and water and pups were returned to their litters. On day 13, rats either received etoposide (1.5 mg/kg daily for 3 days) or cyclophosphamide (CTX) (37.5 mg/kg once) or combination cyclophosphamide (35 mg/kg once) and doxorubicin (2.5 mg/kg daily for 3 days). All chemotherapies were purchased from Sigma and were given intraperitoneally (i.p.) in a total volume of 0.1 mL. Alopecia was recorded 10 days after the last dose of chemotherapy."}, "MIAC51": {"test_system": "MIAC51", "assay": "Survival (cure) rate of chloroleukemic rats after two rounds of chemotherapy", "assay_type": "in vivo, Long Evans Rats", "procedure": "Animals were then randomized in four groups. All rats received MIAC51 as described below.\nOn day 5 after birth all rats received 1×105 MIAC51 intraperitoneally in 0.1 ml of serum free (SF) RPMI. MIAC51 were cultured in RPMI 1640 supplemented with L-glutamine and 10% fetal bovine serum at […] in a 5% CO2, 100% humidity incubator. Cells were grown to 50% confluency (1.5×106 ml) collected in 50 ml conical tubes, centrifuged at 600 g for 10 minutes at room temperature and resuspended in SF-RPMI at a concentration of 1×10^6/ml prior to injection."}}, "note": "Like-named read-outs stand apart in the source and are kept apart here."}
{"molecule": "C=C1/C(=C\\C=C2/CCC[C@]3(C)[C@@H]([C@H](C)CCCC(C)(C)O)CC[C@@H]23)C[C@@H](O)C[C@@H]1O", "note": "[Calcitriol, 1,25-dihydroxyvitamin D3]", "values": [{"measurement": "HSPB1 (Heat shock 27 kDa protein 1) mRNA Regulation Pattern", "setting": "[1]; regulated in two independent experiments", "value": "Down regulated at 48 hours"}, {"measurement": "DNAJC6 (DnaJ (Hsp40) homolog, subfamily C, member 6) mRNA Regulation Pattern", "setting": "[1]; two independent experiments", "value": "Downregulated"}, {"measurement": "HSF4 (Heat shock transcription factor 4) mRNA Regulation Pattern", "setting": "[1]; two independent experiments", "value": "Upregulated at 48 hours"}, {"measurement": "HSPA2 (Heat shock 70 kDa protein 2) mRNA Regulation Pattern", "setting": "[1]; two independent experiments", "value": "Upregulated at 48 hours"}, {"measurement": "SLC1A1 mRNA Regulation Pattern", "setting": "[2]; at 16 hrs", "value": "upregulated"}, {"measurement": "KCNN4 mRNA Regulation Pattern", "setting": "[2]; at 48 hours", "value": "upregulated at 48"}, {"measurement": "KCNB2 mRNA Regulation Pattern", "setting": "[2]; until 24 hours", "value": "upregulated until"}, {"measurement": "Target Proteins with Decreased (>2-fold) Protein Levels Following Calcitriol Treatment (value = protein)", "setting": "HEKa cells [3]", "value": "Transforming Growth Factorb pan and WAVE and Protein Tyrosine Phosphatase PEST and CD40 and Crk II and Growth Factor Independence1 and Serine Threonine Protein and Cathepsin D"}, {"measurement": "Glutathione S-transferase (GST) Response", "setting": "HEKa cells [4]; at 3, 6, and 24 hours, 2-D gel spot 4", "value": "up at 3,"}, {"measurement": "S100 A13 Response", "setting": "HEKa cells [4]; at 6 and 24 hours, spot 14", "value": "up at"}, {"measurement": "Galectin 1 (LGALS1) Response", "setting": "HEKa cells [4]; at 6 and 24 hours, spot 27", "value": "up at"}, {"measurement": "Keratin 1 (KRT1) Response", "setting": "HEKa cells [4]; at 6 hours, spot 2", "value": "up at"}, {"measurement": "effect of calcitriol on cell growth", "setting": "SKMEL-28 (melanoma); SKMEL-28", "value": "no significant growth promoting or growth inhibiting effects"}, {"measurement": "effect on the cytotoxic effect of Doxorubicin", "setting": "SKMEL-28 (melanoma); SKMEL-28", "value": "did not appear to appreciably alter"}, {"measurement": "5-FU ED50 curve with versus without calcitriol", "setting": "SKMEL-28 (melanoma); SKMEL-28, 0.1 μg/mL calcitriol", "value": "not significantly different"}, {"measurement": "effect on the cytotoxic effect of Doxorubicin", "setting": "HepG2 (liver cancer); Hep-G2", "value": "did not appear to appreciably alter"}, {"measurement": "5-FU ED50 curve with versus without calcitriol", "setting": "HepG2 (liver cancer); Hep-G2, 0.1 μg/mL calcitriol", "value": "not significantly different"}, {"measurement": "response to other drugs (doxorubucin, cisplatin, erlotinib) after calcitriol exposure", "setting": "HepG2 (liver cancer); Hep-G2, 0.1 μg/mL calcitriol for two passages", "value": "did not alter"}, {"measurement": "concentrations giving calcitriol growth inhibition", "setting": "HepG2 (liver cancer); HepG2", "value": "> 0.5", "unit": "µg/mL"}, {"measurement": "concentrations giving calcitriol growth stimulation", "setting": "HepG2 (liver cancer); HepG2", "value": "0.05 to 0.25", "unit": "µg/mL"}, {"measurement": "response to other drugs (doxorubucin, cisplatin, erlotinib) after calcitriol exposure", "setting": "PC-3", "value": "did not alter"}, {"measurement": "dosage protective against CIA", "setting": "[5]; neonatal rat, administered as 100 μL of 2 μg/mL topical solution", "value": "about 0.2 μg"}, {"measurement": "protection from etoposide-induced alopecia", "setting": "[5]; neonatal rats, 0.1 μg of calcitriol topical for 6 hours daily, 6 days", "value": "partial localized protection"}, {"measurement": "protection from cyclophosphamide-induced alopecia", "setting": "[5]; neonatal rats, 0.3 μg calcitriol topical, cyclophosphamide 37.5 mg/kg once", "value": "full body protection"}, {"measurement": "protection from etoposide-induced alopecia", "setting": "[5]; neonatal rats, 0.3 calcitriol topical", "value": "total body protection"}, {"measurement": "interference with the cure rate", "setting": "MIAC51; cyclophosphamide and doxorubicin group, cure rate in the range of 50-55%", "value": "did not interfere with the cure rate"}, {"measurement": "interference with the cure rate", "setting": "MIAC51; cyclophosphamide group, cure rate in the range of 20-25%", "value": "did not interfere with the cure rate"}, {"measurement": "interference with the cure rate", "setting": "MIAC51; cyclophosphamide, doxorubicin and cytarabine group, cure rate in the range of 75-80%", "value": "did not interfere with the cure rate"}, {"measurement": "interference with the cure rate", "setting": "MIAC51; cyclophosphamide, paclitaxel and etoposide group, cure rate in the range of 78-83%", "value": "did not interfere with the cure rate"}, {"measurement": "interference with the cure rate", "setting": "MIAC51; doxorubicin, paclitaxel and etoposide group, cure rate in the range of 80-83%", "value": "did not interfere with the cure rate"}]}
